Test results reported in US20120172384A1, “HETEROCYCLYLAMINOPYRIMIDINES AS KINASE INHIBITORS” (priority 2009, published 2012).
Where “and” joins values, the source holds several entries; their conditions need not be identical. Equal entries are not always repeated.

Tests used:
ZAP-70 = target: T1, ZAP-70 (Homo sapiens, UniProt P43403); assay: ZAP-70 kinobeads assay; type: binding; details: cell lysate, dot blot with ZAP-70 antibody
T1 construct: endogenous in cells
T1 sequence (P43403 1-619): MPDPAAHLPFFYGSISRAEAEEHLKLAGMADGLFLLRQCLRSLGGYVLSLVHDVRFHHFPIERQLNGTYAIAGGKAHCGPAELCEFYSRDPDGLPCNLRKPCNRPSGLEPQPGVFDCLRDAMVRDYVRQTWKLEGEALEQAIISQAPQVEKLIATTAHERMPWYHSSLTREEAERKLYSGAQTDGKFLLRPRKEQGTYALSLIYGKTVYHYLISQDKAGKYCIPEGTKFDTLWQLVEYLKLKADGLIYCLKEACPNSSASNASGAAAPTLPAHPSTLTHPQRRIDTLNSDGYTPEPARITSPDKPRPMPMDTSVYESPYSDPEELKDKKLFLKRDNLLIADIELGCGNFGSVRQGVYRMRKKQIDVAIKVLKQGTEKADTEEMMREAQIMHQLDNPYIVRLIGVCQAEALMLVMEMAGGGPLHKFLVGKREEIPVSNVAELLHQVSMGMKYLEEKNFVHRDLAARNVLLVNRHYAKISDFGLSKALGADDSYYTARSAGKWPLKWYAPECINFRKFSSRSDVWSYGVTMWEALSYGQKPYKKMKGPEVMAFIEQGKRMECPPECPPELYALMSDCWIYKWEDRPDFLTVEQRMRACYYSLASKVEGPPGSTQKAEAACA
Procedure: (§1) The compounds of the present invention as described in the previous examples were tested in the ZAP-70 kinobeads assay as described (EP-A 1862802 and WO-A 2007/137867). Briefly, test compounds (at various concentrations) and the affinity matrix with the immobilized aminopyrido-pyrimidine ligand 24 are added to cell lysate aliquots and allowed to bind to the proteins in the lysate sample. After the incubation time the beads with captured proteins are separated from the lysate. Bound proteins are then eluted and the presence ZAP-70 is detected and quantified using a specific antibody in a dot blot procedure and the Odyssey infrared detection system.

JAK3 = target: T2, JAK3 (Homo sapiens, UniProt P52333); assay: JAK3 kinobeads assay; type: binding; details: cell lysate, dot blot with JAK3 specific antibody
T2 construct: endogenous in cells
T2 sequence (P52333 1-1124): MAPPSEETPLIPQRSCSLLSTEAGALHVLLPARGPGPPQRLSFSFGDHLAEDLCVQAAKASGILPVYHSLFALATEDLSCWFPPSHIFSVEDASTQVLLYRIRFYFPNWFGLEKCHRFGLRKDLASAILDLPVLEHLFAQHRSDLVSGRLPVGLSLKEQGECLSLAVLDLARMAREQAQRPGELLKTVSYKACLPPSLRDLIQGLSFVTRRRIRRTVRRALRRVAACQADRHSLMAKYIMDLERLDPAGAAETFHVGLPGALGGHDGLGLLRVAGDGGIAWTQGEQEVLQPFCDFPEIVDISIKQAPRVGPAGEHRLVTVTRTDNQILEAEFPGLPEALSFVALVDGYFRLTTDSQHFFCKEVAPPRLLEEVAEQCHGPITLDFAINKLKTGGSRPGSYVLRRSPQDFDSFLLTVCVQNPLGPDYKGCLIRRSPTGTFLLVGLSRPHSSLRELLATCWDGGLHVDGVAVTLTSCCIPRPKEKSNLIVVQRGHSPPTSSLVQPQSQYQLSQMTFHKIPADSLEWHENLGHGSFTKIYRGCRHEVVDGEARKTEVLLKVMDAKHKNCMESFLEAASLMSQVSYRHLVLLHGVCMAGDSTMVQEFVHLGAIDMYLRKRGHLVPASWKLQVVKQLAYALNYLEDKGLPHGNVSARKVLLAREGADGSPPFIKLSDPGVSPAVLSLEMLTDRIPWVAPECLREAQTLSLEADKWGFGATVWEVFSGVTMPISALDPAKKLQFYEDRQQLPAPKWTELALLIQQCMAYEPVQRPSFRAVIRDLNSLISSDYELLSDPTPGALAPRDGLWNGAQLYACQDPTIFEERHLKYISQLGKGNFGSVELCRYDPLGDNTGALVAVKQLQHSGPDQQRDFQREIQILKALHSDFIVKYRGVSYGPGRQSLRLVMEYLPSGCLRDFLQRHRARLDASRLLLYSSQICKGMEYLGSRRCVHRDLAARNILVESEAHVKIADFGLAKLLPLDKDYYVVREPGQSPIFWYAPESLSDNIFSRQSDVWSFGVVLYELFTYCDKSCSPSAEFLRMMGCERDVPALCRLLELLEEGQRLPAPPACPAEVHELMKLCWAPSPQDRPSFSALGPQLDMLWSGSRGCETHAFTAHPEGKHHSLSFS
Procedure: as §1
Compounds were tested by the procedure described in Example 102 but using a JAK3 specific antibody (Cell Signaling Technology, Inc., Danvers, US, catalogue number 3775) instead of a ZAP70 antibody.

Row | SMILES | IC50 (ZAP-70) [nM] | IC50 (JAK3)
1 | Cn1ccc(Nc2ncc(F)c(Nc3ccccc3NS(C)(=O)=O)n2)n1 [Example 1, N-(2-(5-fluoro-2-(1-methyl-1H-pyrazol-3-ylamino)pyrimidin-4-ylamino)phenyl)methanesulfonamide] | 1000 to 10000 | 100 to 1000 nM
2 | COc1ccc(Nc2nc(Nc3c[nH]nc3C)ncc2Cl)c(NS(C)(=O)=O)c1 [Example 2, N-(2-(5-chloro-2-(3-methyl-1H-pyrazol-4-ylamino)pyrimidin-4-ylamino)-5-methoxyphenyl)methanesulfonamide] | ≤ 100 | ≤ 100 nM
3 | COc1ccc(Nc2nc(Nc3ccnn3C)ncc2Cl)c(NS(C)(=O)=O)c1 [Example 5, N-(2-(5-chloro-2-(1-methyl-1H-pyrazol-5-ylamino)pyrimidin-4-ylamino)-5-methoxyphenyl)methanesulfonamide] | ≤ 100 | 100 to 1000 nM
4 | COc1ccc(Nc2nc(Nc3cc(C)nn3C)ncc2Cl)c(NS(C)(=O)=O)c1 [Example 8, N-(2-(5-chloro-2-(1,3-dimethyl-1H-pyrazol-5-ylamino)pyrimidin-4-ylamino)-5-methoxyphenyl)methanesulfonamide] | ≤ 100 | ≤ 100 nM
5 | COc1ccc(Nc2nc(Nc3cc(C(C)C)nn3C)ncc2Cl)c(NS(C)(=O)=O)c1 [Example 11, N-(2-(5-chloro-2-(3-isopropyl-1-methyl-1H-pyrazol-5-ylamino)pyrimidin-4-ylamino)-5-methoxyphenyl)methanesulfonamide] | 100 to 1000 | 100 to 1000 nM
6 | CCn1nc(C)cc1Nc1ncc(Cl)c(Nc2ccc(OC)cc2NS(C)(=O)=O)n1 [Example 12, N-(2-(5-chloro-2-(1-ethyl-3-methyl-1H-pyrazol-5-ylamino)pyrimidin-4-ylamino)-5-methoxyphenyl)methanesulfonamide] | ≤ 100 | 100 to 1000 nM
7 | COc1ccc(Nc2nc(Nc3c(C)nn(C)c3C)ncc2Cl)c(NS(C)(=O)=O)c1 [Example 13, N-(2-(5-chloro-2-(1,3,5-trimethyl-1H-pyrazol-4-ylamino)pyrimidin-4-ylamino)-5-methoxyphenyl)methanesulfonamide] | 100 to 1000 | 1000 to 10000 nM
8 | COc1ccc(Nc2nc(Nc3nonc3OC)ncc2Cl)c(NS(C)(=O)=O)c1 [Example 17, N-(2-(5-chloro-2-(4-methoxy-1,2,5-oxadiazol-3-ylamino)pyrimidin-4-ylamino)-5-methoxyphenyl)methanesulfonamide] | 1000 to 10000 | 1000 to 10000 nM
9 | Cn1cc(Nc2ncc(Cl)c(Nc3ccccc3NS(C)(=O)=O)n2)cn1 [Example 20, N-(2-(5-chloro-2-(1-methyl-1H-pyrazol-4-ylamino)pyrimidin-4-ylamino)phenyl)methanesulfonamide] | 100 to 1000 | ≤ 100 nM
10 | COc1ccc(Nc2nc(Nc3cnn(C)c3)ncc2F)c(NS(C)(=O)=O)c1 [Example 21, N-(2-(5-fluoro-2-(1-methyl-1H-pyrazol-4-ylamino)pyrimidin-4-ylamino)-5-methoxyphenyl)methanesulfonamide] | 100 to 1000 | ≤ 100 nM
11 | Cn1cc(Nc2ncc(F)c(Nc3ccccc3NS(C)(=O)=O)n2)cn1 [Example 22, N-(2-(5-fluoro-2-(1-methyl-1H-pyrazol-4-ylamino)pyrimidin-4-ylamino)phenyl)methanesulfonamide] | 100 to 1000 | ≤ 100 nM
12 | CS(=O)(=O)Nc1ccccc1Nc1nc(Nc2cn[nH]c2)ncc1F [Example 23, N-(2-(2-(1H-pyrazol-4-ylamino)-5-fluoropyrimidin-4-ylamino)phenyl)methanesulfonamide] | 100 to 1000 | ≤ 100 nM
13 | CCCCn1nc(C)cc1Nc1ncc(Cl)c(Nc2ccc(OC)cc2NS(C)(=O)=O)n1 [Example 86, N-(2-((2-((1-butyl-3-methyl-1H-pyrazol-5-yl)amino)-5-chloropyrimidin-4-yl)amino)-5-methoxyphenyl)methanesulfonamide] | ≤ 100 | 
14 | CCCCn1nccc1Nc1ncc(Cl)c(Nc2ccc(OC)cc2NS(C)(=O)=O)n1 [Example 87, N-(2-((2-((1-butyl-1H-pyrazol-5-yl)amino)-5-chloropyrimidin-4-yl)amino)-5-methoxyphenyl)methanesulfonamide] | 100 to 1000 | 
15 | COc1ccc(Nc2nc(Nc3ccnn3CC(C)C)ncc2Cl)c(NS(C)(=O)=O)c1 [Example 98, N-(2-((5-chloro-2-((1-isobutyl-1H-pyrazol-5-yl)amino)pyrimidin-4-yl)amino)-5-methoxyphenyl)methanesulfonamide] | 1000 to 10000 | 

Second part, the molecule after the results:

Row | IC50 (ZAP-70) [nM] | IC50 (JAK3) | SMILES
16 | 100 to 1000 | ≤ 100 nM | COc1ccc(Nc2nc(Nc3ccon3)ncc2Cl)c(NS(C)(=O)=O)c1 [Example 3, N-(2-(5-chloro-2-(isoxazol-3-ylamino)pyrimidin-4-ylamino)-5-methoxyphenyl)methanesulfonamide]
17 | 100 to 1000 | 100 to 1000 nM and ≤ 100 nM | COc1ccc(Nc2nc(Nc3ccn(C)n3)ncc2Cl)c(NS(C)(=O)=O)c1 [Example 4, N-(2-(5-chloro-2-(1-methyl-1H-pyrazol-3-ylamino)pyrimidin-4-ylamino)-5-methoxyphenyl)methanesulfonamide]
18 | ≤ 100 | ≤ 100 nM | COc1ccc(Nc2nc(Nc3cnn(C)c3)ncc2Cl)c(NS(C)(=O)=O)c1 [Example 6, N-(2-(5-chloro-2-(1-methyl-1H-pyrazol-4-ylamino)pyrimidin-4-ylamino)-5-methoxyphenyl)methanesulfonamide]
19 | 100 to 1000 | 100 to 1000 nM | COc1ccc(Nc2nc(Nc3ccn(C)n3)ncc2F)c(NS(C)(=O)=O)c1 [Example 7, N-(2-(5-fluoro-2-(1-methyl-1H-pyrazol-3-ylamino)pyrimidin-4-ylamino)-5-methoxyphenyl)methanesulfonamide]
20 | 100 to 1000 | ≤ 100 nM | Cn1ccc(Nc2ncc(Cl)c(Nc3ccccc3NS(C)(=O)=O)n2)n1 [Example 16, N-(2-(5-chloro-2-(1-methyl-1H-pyrazol-3-ylamino)pyrimidin-4-ylamino)phenyl)methanesulfonamide]
21 | ≤ 100 | ≤ 100 nM | COc1ccc(Nc2nc(Nc3cn(C)nc3C)ncc2Cl)c(NS(C)(=O)=O)c1 [Example 18, N-(2-(5-chloro-2-(1,3-dimethyl-1H-pyrazol-4-ylamino)pyrimidin-4-ylamino)-5-methoxyphenyl)methanesulfonamide]
22 | 1000 to 10000 |  | COc1ccc(Nc2nc(Nc3cc(C)nn3C(C)C3CC3)ncc2Cl)c(NS(C)(=O)=O)c1 (centres unmarked) [Example 88, N-(2-((5-chloro-2-((1-(1-cyclopropylethyl)-3-methyl-1H-pyrazol-5-yl)amino)pyrimidin-4-yl)amino)-5-methoxyphenyl)methanesulfonamide]
23 | 100 to 1000 |  | COc1ccc(Nc2nc(Nc3cc(C)nn3CC(C)C)ncc2Cl)c(NS(C)(=O)=O)c1 [Example 95, N-(2-((5-chloro-2-((1-isobutyl-3-methyl-1H-pyrazol-5-yl)amino)pyrimidin-4-yl)amino)-5-methoxyphenyl)methanesulfonamide]
